Results from patent US10730883B2 (AbbVie Inc., priority 2015, dated 2020).
Entries after “also recorded” stand apart in the source; their conditions may differ. Counter-ions that a name gives are not always drawn. One block for each molecule: values may come before it.

Tests used:
[1] = Moisture sorption isotherm; assay type: physicochemical
Method: Moisture vapor isotherm data were collected with a DVS Advantage (Surface Measurement Systems Ltd, Alperton, United Kingdom). The sample powder (5 mg to 20 mg) was loaded on a tared pan of the DVS Advantage. The moisture sorption isotherm data were collected from 30-0-90-0-30% relative humidity in 10% relative humidity intervals. For each step, the dm/dt criteria was 0.001% over 5 minutes, a minimum dm/dt time of 30 minutes, and a maximum dm/dt of 120 minutes. Data was collected isothermally at 25° C. with a nitrogen flow rate of 200 cm^3/minute. The post DVS sample was kept at approximately 30% relative humidity before PXRD analysis.

[2] = Hygroscopicity / moisture sorption isotherm of solid state forms; assay type: physicochemical; conditions: for hygroscopicity: general statement on the solid state form
Text: FIG. 6A is a moisture sorption isotherm corresponding to the Amorphous Freebase (via dehydration).
FIG. 6C is a moisture sorption isotherm corresponding to the Tartrate Hydrate.
FIG. 6D is a moisture sorption isotherm corresponding to the Freebase Anhydrate Form D.
In one embodiment, the Tartrate Hydrate has a moisture sorption isotherm profile showing a weight gain of about 1% to about 2% when relative humidity is increased from about 10% relative humidity to about 90% relative humidity at a temperature of 25° C.

[3] = Physical stability of solid state forms (dehydration, desolvation, conversion); assay type: physicochemical; conditions: for conversion upon drying: drying / ambient drying; for physical stability: general statement on the solid state form
Method: The Tartrate Hydrate dehydrated into Amorphous at low relative humidity and high temperature, e.g., <10% RH at 25° C. Shearing and compression potentially cause conversion to the amorphous tartrate, and therefore it is not suitable for compressing into tablet form. Additionally, the filter cake solidified during drying, resulting in the need for additional controls during drying.
In addition, Freebase Hydrate Form C can be grown into different particle sizes.
Freebase Anhydrate Form D can be manufactured only when the water content of the crystallization solvent is low, and will convert to Freebase Hydrate Form C in solutions at high water content. The manufacture of Freebase Anhydrate Form D thus requires strict control of water content. Freebase Anhydrate Form D is slow to crystallize, and difficult to manufacture in higher yield. […] Freebase Hydrate Form C will convert to Freebase Anhydrate Form D in a solution of ethyl acetate with low water content.
The resulting amorphous hydrochloride is hygroscopic. Yields obtained for each of the crystalline hydrochlorides generally have been in the 10% to 15% range.

[4] = Stability of isolated solid form at ambient conditions; assay type: physicochemical; conditions: after isolation
Equilibrium solubility = assay type: physicochemical
[5] = Chemical stability of solid state forms in closed vials at controlled temperature and relative humidity; assay type: physicochemical; conditions: general statement on the solid state form
Method: The Amorphous Freebase, however, is hygroscopic and can comprise as much as 12% by weight water at 25° C./90% relative humidity. Environmental controls potentially are required to ensure appropriate control of potency and water content during storage, dispensing, and handling of the Amorphous Freebase.
The Tartrate Hydrate, however, potentially will convert to an amorphous tartrate below 10% relative humidity, when heated, or when compressed or under shear.

[6] = Solid state accelerated stability study; assay type: physicochemical; conditions: for chemical stability: solid state accelerated stability study
Method: Samples (approximately 1 mg to 2 mg) of the solid state form were weighed into glass vials and tested as described below.

[7] = Pharmacokinetic interaction of Compound 1 and methotrexate (dose-normalized AUC); assay type: in vivo, human; conditions: FIG. 35B
[8] = Study 2-Part 2: methotrexate PK alone or with Compound 1 in subjects with RA; assay type: in vivo; conditions: human; for CL renal: urine and plasma
isolated Treg cells = isolated Treg cells and rheumatoid arthritis synovial fluid; cited from earlier work

Molecule: CC[C@@H]1CN(C(=O)NCC(F)(F)F)C[C@@H]1c1cnc2cnc3[nH]ccc3n12 [Freebase Anhydrate Form D, (3S,4R)-3-ethyl-4-(3H-imidazo[1,2-a]pyrrolo[2,3-e]pyrazin-8-yl)-N-(2,2,2-trifluoroethyl)pyrrolidine-1-carboxamide]
Moisture sorption (reversibly sorbs up to) ([1]; 90% relative humidity at 25° C.): up to 1.8% | water uptake (reversibly hygroscopic) ([2]; 90% RH at 25° C.): up to 1.8% | hygroscopicity [2]: reversibly hygroscopic

Molecule: CC[C@@H]1CN(C(=O)NCC(F)(F)F)C[C@@H]1c1cnc2cnc3[nH]ccc3n12 [Freebase Hydrate Form B, (3S,4R)-3-ethyl-4-(3H-imidazo[1,2-a]pyrrolo[2,3-e]pyrazin-8-yl)-N-(2,2,2-trifluoroethyl)pyrrolidine-1-carboxamide]
conversion upon drying [3]: convert to the Amorphous Freebase upon drying | physical stability [3]: not physically stable | Stability at ambient conditions [4]: not stable after isolation at ambient conditions and readily dehydrated to the Amorphous Freebase; also recorded: not stable at ambient conditions and readily dehydrates to the Amorphous Freebase

Molecule: CC[C@@H]1CN(C(=O)NCC(F)(F)F)C[C@@H]1c1cnc2cnc3[nH]ccc3n12 [Freebase Hydrate Form C, (3S,4R)-3-ethyl-4-(3H-imidazo[1,2-a]pyrrolo[2,3-e]pyrazin-8-yl)-N-(2,2,2-trifluoroethyl)pyrrolidine-1-carboxamide]
Solubility (Equilibrium solubility; FasSIF (pH 6.5 at 37° C.)): 0.22 mg/mL | Solubility (Equilibrium solubility; pH 1 at 25° C.): 55.3 mg/mL | temperature up to which no dehydration occurs ([3]; drying): around 110 °C | physical stability [3]: excellent and good | stability under mechanical processing ([3]; milling, compression): stable under mechanical processing | hygroscopicity ([1]; moisture sorption isotherm analysis, 25° C.): not hygroscopic | chemical stability [5]: excellent chemical stability; also recorded: good chemical stability | hygroscopicity [2]: low hygroscopicity | Growth of degradation products ([6]; 80/75 10 days, 50/75 6 weeks, 40/75 and 30/65 24 weeks, 25/60 12 months (Temp ° C./% RH)): no growth of degradation products | chemical stability [6]: acceptable | Change in attributes evaluated (description, crystal form, assay, impurities and water content) ([6]; storage conditions of the accelerated stability study): No material change

Molecule: CC[C@@H]1CN(C(=O)NCC(F)(F)F)C[C@@H]1c1cnc2cnc3[nH]ccc3n12 [Freebase Solvate Form A, (3S,4R)-3-ethyl-4-(3H-imidazo[1,2-a]pyrrolo[2,3-e]pyrazin-8-yl)-N-(2,2,2-trifluoroethyl)pyrrolidine-1-carboxamide]
conversion upon drying [3]: convert to the Amorphous Freebase upon drying | physical stability [3]: not physically stable | Stability at ambient conditions [4]: not stable after isolation at ambient conditions and readily dehydrated to the Amorphous Freebase

Molecule: CC[C@@H]1CN(C(=O)NCC(F)(F)F)C[C@@H]1c1cnc2cnc3[nH]ccc3n12 [Hydrochloride Solvate Form AA, (3S,4R)-3-ethyl-4-(3H-imidazo[1,2-a]pyrrolo[2,3-e]pyrazin-8-yl)-N-(2,2,2-trifluoroethyl)pyrrolidine-1-carboxamide]
conversion upon drying [3]: convert to an amorphous hydrochloride upon ambient drying

Molecule: CC[C@@H]1CN(C(=O)NCC(F)(F)F)C[C@@H]1c1cnc2cnc3[nH]ccc3n12 [Hydrochloride Solvate Form BB, (3S,4R)-3-ethyl-4-(3H-imidazo[1,2-a]pyrrolo[2,3-e]pyrazin-8-yl)-N-(2,2,2-trifluoroethyl)pyrrolidine-1-carboxamide]
conversion upon drying [3]: convert to an amorphous hydrochloride upon ambient drying

Molecule: CC[C@@H]1CN(C(=O)NCC(F)(F)F)C[C@@H]1c1cnc2cnc3[nH]ccc3n12 [Hydrochloride Solvate Form CC, (3S,4R)-3-ethyl-4-(3H-imidazo[1,2-a]pyrrolo[2,3-e]pyrazin-8-yl)-N-(2,2,2-trifluoroethyl)pyrrolidine-1-carboxamide]
conversion upon drying [3]: convert to an amorphous hydrochloride upon ambient drying

Molecule: CC[C@@H]1CN(C(=O)NCC(F)(F)F)C[C@@H]1c1cnc2cnc3[nH]ccc3n12 [L-Maleate Form AAA, (3S,4R)-3-ethyl-4-(3H-imidazo[1,2-a]pyrrolo[2,3-e]pyrazin-8-yl)-N-(2,2,2-trifluoroethyl)pyrrolidine-1-carboxamide]
chemical stability [5]: less chemically stable

Molecule: CC[C@@H]1CN(C(=O)NCC(F)(F)F)C[C@@H]1c1cnc2cnc3[nH]ccc3n12 [L-Maleate Form BBB, (3S,4R)-3-ethyl-4-(3H-imidazo[1,2-a]pyrrolo[2,3-e]pyrazin-8-yl)-N-(2,2,2-trifluoroethyl)pyrrolidine-1-carboxamide]
chemical stability [5]: less chemically stable | Degradation on storage ([6]; 50° C./75% relative humidity (open and closed glass vials)): degraded to products that were not observed for the Freebase Hydrate Form C or the Tartrate Hydrate | chemical stability ([6]; listed as L-maleate salt): prone to chemical degradation

hygroscopicity [2]: hygroscopic
Molecule: CCC1CN(C(=O)NCC(F)(F)F)CC1c1cnc2cnc3[nH]ccc3n12.Cl (stereo not drawn) [amorphous hydrochloride]

effect of concomitant Compound 1 administration on methotrexate dose-normalized AUC [7]: lack of effect | Tmax ([8]; plasma, 6 mg, Compound 1 6 mg BID Group, Day 1 (alone)): 2.5 h | half-life ([8]; plasma, 6 mg, Compound 1 6 mg BID Group, Day 29 (with Compound 1), harmonic mean ± pseudo-SD, read-out: t1/2 (terminal elimination half-life) (converted)): 282 ± 78 min | Tmax ([8]; plasma, 12 mg, Compound 1 12 mg BID Group, Day 29 (with Compound 1)): 2.5 h | Tmax ([8]; plasma, 24 mg, Compound 1 24 mg BID Group, Day 1 (alone)): 3 h | Tmax ([8]; plasma, 24 mg, Compound 1 24 mg BID Group, Day 29 (with Compound 1)): 2.5 h | CL renal ([8]; 6 mg, Compound 1 6 mg BID Group, Day 1 (alone)): 110 mL/min | CL renal ([8]; 6 mg, Compound 1 6 mg BID Group, Day 29 (with Compound 1)): 90.5 mL/min | CL renal ([8]; 12 mg, Compound 1 12 mg BID Group, Day 1 (alone)): 102 mL/min | CL renal ([8]; 12 mg, Compound 1 12 mg BID Group, Day 29 (with Compound 1)): 79.7 mL/min | CL renal ([8]; 24 mg, Compound 1 24 mg BID Group, Day 1 (alone)): 124 mL/min | CL renal ([8]; 24 mg, Compound 1 24 mg BID Group, Day 29 (with Compound 1)): 107 mL/min | CL renal ([8]; Placebo group, Day 1): 72 mL/min | CL renal ([8]; Placebo group, Day 29): 96.7 mL/min
Molecule: CN(Cc1cnc2nc(N)nc(N)c2n1)c1ccc(C(=O)N[C@@H](CCC(=O)O)C(=O)O)cc1 [methotrexate]

B1: BT-061: humanized agonistic monoclonal antibody that binds to a unique epitope of human CD4 (antibody, chains of the INN, looked up, V domains shown)
VH: EEQLVESGGGLVKPGGSLRLSCAASGFSFSDCRMYWLRQAPGKGLEWIGVISVKSENYGANYAESVRGRFTISRDDSKNTVYLQMNSLKTEDTAVYYCSASYYRYDVGAWFAYWGQGTLVTVSS
VL: DIVMTQSPDSLAVSLGERATINCRASKSVSTSGYSYIYWYQQKPGQPPKLLIYLASILESGVPDRFSGSGSGTDFTLTISSLQAEDVAVYYCQHSRELPWTFGQGTKVEIK
CD4+ and CD8+ T effector cell proliferation (isolated Treg cells): suppression | expression of pro-inflammatory cytokines (isolated Treg cells): reduction | production of the anti-inflammatory cytokine TGFβ (isolated Treg cells): increase
